The target of this assay is T1, mitochondrial branched-chain aminotransferase (mBCAT2) (Mus musculus, UniProt O35855).
T1 sequence (O35855 28-393): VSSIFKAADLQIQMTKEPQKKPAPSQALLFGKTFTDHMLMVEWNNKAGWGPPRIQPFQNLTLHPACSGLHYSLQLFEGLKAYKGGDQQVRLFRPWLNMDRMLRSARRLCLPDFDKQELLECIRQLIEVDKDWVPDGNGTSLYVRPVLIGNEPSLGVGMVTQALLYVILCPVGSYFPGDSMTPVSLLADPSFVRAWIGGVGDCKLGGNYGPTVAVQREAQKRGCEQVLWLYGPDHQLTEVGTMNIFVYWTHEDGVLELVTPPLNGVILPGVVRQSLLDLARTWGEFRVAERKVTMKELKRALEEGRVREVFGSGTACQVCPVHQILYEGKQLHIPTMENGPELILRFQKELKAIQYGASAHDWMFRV
The assay is described as follows: LC-MS transamination assay with Michaelis–Menten kinetics. The class given is biochemical.

Structures are written as SMILES.

`C=C(CC(=O)O)C(=O)O` [ITA, itaconate] showed a Ki of 15.3 mM.
